Laboratory results taken from patent publication US10288629B1, “Method of assessing growth hormone deficiency in humans by a macimorelin containing composition” (AEterna Zentaris, Inc., priority 2017, dated 2019).

How the values were obtained:
[1] = parameters: species or system human; conditions: in vivo
[2] = tested on: GH level; test: repeatability of the macimorelin GHST; type: in vivo, human; conditions: below or above cut-off point
Excerpt: To assess the repeatability of the macimorelin GHST, 33 subjects with a valid first macimorelin test (core study) underwent a second macimorelin test (repeatability study extension).

[3] = tested on: peak GH concentrations; test: peak GH response in the macimorelin GHST and ITT; type: in vivo, human; conditions: all AGHD likelihood groups A-D; N=139; FIG. 5
Procedure: Blood samples were collected before and 30, 45, 60, and 90 minutes after administration of macimorelin and before and 15, 30, 45, 60, 90 and 120 minutes after administration of insulin to the efficacy data set subjects and GH levels were determined for all samples.

[4] = target: T1, human GHS receptor (Homo sapiens, UniProt Q92847); conditions: membrane preparations from human hypothalamus and pituitary gland; compared with ghrelin; cited from earlier work
T1 construct: membrane preparations containing the GHS-receptor derived from human hypothalamus and pituitary gland; from tissue; host or cells: human hypothalamus and pituitary gland membranes

[5] = tested on: GH level; test: agreement of the Macimorelin GHST with the ITT for diagnosis of AGHD; type: in vivo, human; conditions: cut-off 2.8 ng/mL macimorelin, 5.1 ng/mL ITT, N = 139
Procedure: The study protocol allowed for a 5 minutes time window for each of said time points, meaning that a blood sample collected for example within 25 to 35 min after GH provocation agent administration was […] collected for the 30 min time point.

[6] = macimorelin sample: peak of 0-90 min
[7] = macimorelin sample: peak of 45 & 60 min
[8] = macimorelin sample: peak of 60 & 90 min

T1 sequence (Q92847 whole entry): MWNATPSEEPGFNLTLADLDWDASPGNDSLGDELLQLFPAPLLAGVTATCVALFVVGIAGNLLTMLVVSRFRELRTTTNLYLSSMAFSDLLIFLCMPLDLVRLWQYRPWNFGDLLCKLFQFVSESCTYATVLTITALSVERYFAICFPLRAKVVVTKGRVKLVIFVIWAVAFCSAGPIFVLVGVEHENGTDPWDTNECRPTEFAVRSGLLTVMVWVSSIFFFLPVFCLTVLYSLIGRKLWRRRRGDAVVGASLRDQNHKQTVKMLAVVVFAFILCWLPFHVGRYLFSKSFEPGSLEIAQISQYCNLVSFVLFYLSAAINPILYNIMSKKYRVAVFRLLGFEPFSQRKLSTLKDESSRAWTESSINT

## ITT: insulin tolerance test: intravenous administration of insulin to induce hypoglycaemia, which leads to GH release; comparator GHST [reference compound]
[1]
  Any TEAE (likely or possible related), % of subjects: 94.9%
  Any TEAE (likely or possible related), Frequency (number of subjects): 149
  Any TEAE (likely or possible related), N AEs: 710
  Any TEAE, % of subjects: 96.2%
  Any TEAE, N AEs (number of all AEs): 761
  Any test emergent severe AE, % of subjects: 7%
  severe TEAE asthenia, number of subjects: 4
  severe TEAE hunger, number of subjects: 3
  severe TEAE hyperhidrosis, number of subjects: 5
  severe TEAE nervousness, number of subjects: 2
  severe TEAE somnolence, number of subjects: 5
  severe TEAE tremor, % of subjects: 0.6%
  severe TEAE tremor, number of subjects: 1

## CC(C)(N)C(=O)N[C@H](Cc1c[nH]c2ccccc12)C(=O)N[C@H](Cc1c[nH]c2ccccc12)NC=O [Macimorelin, macimorelin]
[2]; 33 subjects
  result of second macimorelin test matching result of first test: 94%
[2]; out of 33 subjects
  subjects with reproducible test outcome (number): 31
[3]
  peak GH levels in the macimorelin GHST as compared to the ITT: higher peak GH levels
[1]; human
  diarrhea: 1.9%
  dizziness: 3.9%
  dysgeusia: 4.5%
  fatigue: 3.9%
  feeling hot: 1.3%
  headache: 3.9%
  hunger: 3.2%
  hyperhidrosis: 1.3%
  nasopharyngitis: 1.3%
  nausea: 3.2%
  sinus bradycardia: 1.3%
  upper respiratory tract infection: 1.9%
[4]
  binding potency to the human GHS receptor: comparable to that of its natural ligand, ghrelin
[5]; macimorelin sample: 30 min
  Negative % agreement: 73.85%
  Positive % agreement: 82.43%
  Total % agreement: 78.42%
[5]; macimorelin sample: 45 min
  Negative % agreement: 86.15%
  Positive % agreement: 78.38%
  Total % agreement: 82.01%
[5]; macimorelin sample: 60 min
  Negative % agreement: 95.31%
  Positive % agreement: 81.08%
  Total % agreement: 87.68%
[5]; macimorelin sample: 90 min
  Negative % agreement: 84.62%
  Positive % agreement: 86.49%
  Total % agreement: 85.61%
[5]; [6]
  Negative % agreement: 95.38%
  Positive % agreement: 74.32%
  Total % agreement: 84.17%
[5]; [7]
  Negative % agreement: 95.38%
  Positive % agreement: 75.68%
  Total % agreement: 84.89%
[5]; [8]
  Negative % agreement: 95.38%
  Positive % agreement: 78.38%
  Total % agreement: 86.33%
[5]; macimorelin sample: pre-dose
  Negative % agreement: 13.85%
  Positive % agreement: 98.65%
  Total % agreement: 58.99%
